The NIST ThermoML archive (doi:10.1021/je300568h)
Numbers after ± are expanded uncertainties.

Details: Liquid, Ebulliometric method (Recirculating still)

| Compound | vapor or sublimation pressure (420.2 K) [kPa] | vapor or sublimation pressure (436.7 K) [kPa] | vapor or sublimation pressure (448.2 K) [kPa] | vapor or sublimation pressure (457.9 K) [kPa] | vapor or sublimation pressure (330.9 K) [kPa] | vapor or sublimation pressure (345 K) [kPa] | vapor or sublimation pressure (355.1 K) [kPa] | vapor or sublimation pressure (363.2 K) [kPa] | vapor or sublimation pressure (366.7 K) [kPa] |
| --- | --- | --- | --- | --- | --- | --- | --- | --- | --- |
| CCCCCCCCN(C)C [N,N-dimethyl-1-octanamine] | 29.84 ± 0.74 | 49.84 ± 0.89 | 69.83 ± 1.2 | 89.83 ± 1.3 | – | – | – | – | – |
| CCCCN(C)C [N,N-dimethylbutanamine] | – | – | – | – | 29.84 ± 0.86 | 49.84 ± 0.99 | 69.83 ± 1.3 | 89.83 ± 1.6 | 99.83 ± 1.7 |
